Test results published in ChEMBL document CHEMBL1124186, “Synthesis and evaluation of tylosin-related macrolides modified at the aldehyde function: a new series of orally effective antibiotics” (1988).
≈ marks a conversion by molar mass, not a printed value.

Tests used:
[1] = tested on: Clostridium perfringens; assay: In vitro antimicrobial activity against anaerobic bacteria clostridium perfringens 81,; format: functional
[2] = tested on: Peptoniphilus asaccharolyticus; assay: In vitro antimicrobial activity against anaerobic bacteria peptococcus asaccharolyticus 1302; format: functional
[3] = tested on: Enterococcus faecium; assay: In vitro antimicrobial activity against Streptococcus faecium X66; format: functional, streptococcus fae-cium
[4] = In vitro antimicrobial activity against anaerobic bacteria peptostreptococcus intermedius 1264; format: functional
[5] = tested on: Prevotella melaninogenica; assay: In vitro antimicrobial activity against anaerobic bacteria bacteroides melaninogenicus 1856,; format: functional
[6] = tested on: Phocaeicola vulgatus; assay: In vitro antimicrobial activity against anaerobic bacteria bacteroides vulgatus 1211; format: functional
[7] = tested on: Anaerococcus prevotii; assay: In vitro antimicrobial activity against anaerobic bacteria peptococcus prevoti 1281; format: functional
[8] = tested on: Cutibacterium acnes; assay: In vitro antimicrobial activity against anaerobic bacteria propionibacterium acnes 79; format: functional
[9] = tested on: Prevotella melaninogenica; assay: In vitro antimicrobial activity against anaerobic bacteria bacteroides melaninogenicus 2736; format: functional
[10] = tested on: Bacteroides fragilis; assay: In vitro antimicrobial activity against anaerobic bacteria bacteroides fragilis 111; format: functional
[11] = tested on: Bacteroides fragilis; assay: In vitro antimicrobial activity against anaerobic bacteria bacteroides fragilis 1936B,; format: functional
[12] = tested on: Streptococcus pyogenes; assay: In vivo effective dose against experimental infections in rodent caused by Streptococcus pyogenes C203 when administered orally; format: functional; conditions: po
[13] = tested on: Peptostreptococcus anaerobius; assay: In vitro antimicrobial activity against anaerobic bacteria eubacterium peptostreptococcus anaerobius 1428,; format: functional
[14] = tested on: Streptococcus pneumoniae; assay: In vitro antimicrobial activity against Streptococcus pneumoniae; format: functional
[15] = tested on: Chlamydia trachomatis; assay: In vitro antimicrobial activity against chlamydia trachomatis.; format: functional
[16] = tested on: Fusobacterium; assay: In vitro antimicrobial activity against anaerobic bacteria fusobacterium symbiosum 1470; format: functional
[17] = tested on: Staphylococcus aureus; assay: In vitro antimicrobial activity against Staphylococcus aureus X1; format: functional
[18] = tested on: Haemophilus influenzae; assay: In vitro antimicrobial activity against Haemophilus influenzae.; format: functional
[19] = tested on: Fusobacterium necrophorum; assay: In vitro antimicrobial activity against anaerobic bacteria usobacterium necrophorum 6054A; format: functional
[20] = tested on: Streptococcus pyogenes; assay: In vitro antimicrobial activity against Streptococcus pyogenes C203; format: functional
[21] = tested on: Bacteroides thetaiotaomicron; assay: In vitro antimicrobial activity against anaerobic bacteria bacteroides thetaiotaomicron 1438; format: functional
[22] = tested on: Collinsella aerofaciens; assay: In vitro antimicrobial activity against anaerobic bacteria aerofaciens 1235; format: functional
[23] = tested on: Bacteroides fragilis; assay: In vitro antimicrobial activity against anaerobic bacteria bacteroides fragilis 1877; format: functional
[24] = tested on: Eikenella corrodens; assay: In vitro antimicrobial activity against anaerobic bacteria bacteroides corrodens 1874; format: functional
[25] = tested on: Clostridioides difficile; assay: In vitro antimicrobial activity against anaerobic bacteria Clostridium difficile 2994; format: functional
[26] = tested on: Staphylococcus epidermidis; assay: In vitro antimicrobial activity against Staphylococcus epidermidis EPI1; format: functional
[27] = tested on: Streptococcus pyogenes; assay: In vivo effective dose against experimental infections in rodent caused by Streptococcus pyogenes C203 when administered sc; format: functional

## CC[C@H]1OC(=O)C[C@@H](O)[C@H](C)[C@@H](O[C@@H]2O[C@H](C)[C@@H](O)[C@H](N(C)C)[C@H]2O)[C@@H](CCO)C[C@@H](C)C(=O)/C=C/C(C)=C/[C@@H]1CO
[1]
  MIC: 4 µg/mL (≈ 6.67 µM)
[2]
  MIC: > 8 µg/mL
[3]
  MIC: 64 µg/mL (≈ 107 µM)
[4]
  MIC: > 8 µg/mL
[5]
  MIC: > 8 µg/mL
[6]
  MIC: > 8 µg/mL
[7]
  MIC: > 8 µg/mL
[8]
  MIC: 4 µg/mL (≈ 6.67 µM)
[9]
  MIC: > 8 µg/mL
[10]
  MIC: > 8 µg/mL
[11]
  MIC: > 8 µg/mL
[12]
  ED50: > 100 mg/kg
[13]
  MIC: > 8 µg/mL
[14]
  MIC: 64 µg/mL (≈ 107 µM)
[15]
  MIC: > 1 µg/mL
[16]
  MIC: > 8 µg/mL
[17]
  MIC: 64 µg/mL (≈ 107 µM)
[18]
  MIC: 32 µg/mL (≈ 53.4 µM)
[19]
  MIC: 4 µg/mL (≈ 6.67 µM)
[20]
  MIC: 16 µg/mL (≈ 26.7 µM)
[21]
  MIC: > 8 µg/mL
[22]
  MIC: 8 µg/mL (≈ 13.3 µM)
[23]
  MIC: > 8 µg/mL
[24]
  MIC: > 8 µg/mL
[25]
  MIC: 4 µg/mL (≈ 6.67 µM)
[26]
  MIC: 32 µg/mL (≈ 53.4 µM)
[27]
  ED50: > 10 mg/kg
